# Data reported in the supplement of paper PMC10307832.
# Experiments:
# Test in all cases: relative viability (nuclei count vs DMSO), 5 days (fraction); higher = more cells survive
# BEN = test system: BEN
# Procedure, shortened: (§1)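 Lung cancer cell lines in 1536-well plates got either a single drug or a fixed anchor-drug dose together with five library-drug doses (not always all listed) in √10 steps, by pin tool, on the day after seeding. Nuclei were counted after 5 days, and relative viability is the treated-to-vehicle ratio of nuclei counts. Values are medians of duplicate plates.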
# HOP-62 = test system: HOP-62
# Procedure, shortened: as §1
# LXF-289 = test system: LXF-289
# Procedure, shortened: as §1
# NCI-H650 = test system: NCI-H650
# Procedure, shortened: as §1
# HARA = test system: HARA
# Procedure, shortened: as §1
# LOU-NH91 = test system: LOU-NH91
# Procedure, shortened: as §1
# HCC-78 = test system: HCC-78
# Procedure, shortened: as §1
# SK-MES-1 = test system: SK-MES-1
# Procedure, shortened: as §1
# NCI-H1563 = test system: NCI-H1563
# Procedure, shortened: as §1
# COR-L 105 = test system: COR-L 105
# Procedure, shortened: as §1
# NCI-H2087 = test system: NCI-H2087
# Procedure, shortened: as §1
# H3255 = test system: H3255
# Procedure, shortened: as §1
# UMC-11 = test system: UMC-11
# Procedure, shortened: as §1
# NCI-H1395 = test system: NCI-H1395
# Procedure, shortened: as §1
# LC-2-ad = test system: LC-2-ad
# Procedure, shortened: as §1
# NCI-H1993 = test system: NCI-H1993
# Procedure, shortened: as §1
# LU99A = test system: LU99A
# Procedure, shortened: as §1
# SW 900 = test system: SW 900
# Procedure, shortened: as §1
# NCI-H2170 = test system: NCI-H2170
# Procedure, shortened: as §1
# 201T = test system: 201T
# Procedure, shortened: as §1
# NCI-H2126 = test system: NCI-H2126
# Procedure, shortened: as §1
# RERF-LC-KJ = test system: RERF-LC-KJ
# Procedure, shortened: as §1
# EMC-BAC-2 = test system: EMC-BAC-2
# Procedure, shortened: as §1
structure (smiles),measurement,setting,value
Cc1csc(=NC2CCCCC2)n1/N=C/c1ccc(O)c(O)c1O [MIM1] + Nc1nc2[nH]cc(CCc3ccc(C(=O)N[C@@H](CCC(=O)O)C(=O)O)cc3)c2c(=O)[nH]1 [Pemetrexed] (partner 0.2 µM),relative viability,BEN; first compound 0.2 µM,0.792
same,relative viability,BEN; first compound 0.6325 µM,0.751
same,relative viability,BEN; first compound 2 µM,0.705
same,relative viability,BEN; first compound 6.325 µM,0.709
same,relative viability,BEN; first compound 20 µM,0.34
same,relative viability,HOP-62; first compound 0.2 µM,0.362
same,relative viability,HOP-62; first compound 0.6325 µM,0.34
same,relative viability,HOP-62; first compound 2 µM,0.385
same,relative viability,HOP-62; first compound 6.325 µM,0.328
same,relative viability,HOP-62; first compound 20 µM,0.127
same,relative viability,LXF-289; first compound 0.2 µM,0.9
same,relative viability,LXF-289; first compound 0.6325 µM,0.737
same,relative viability,LXF-289; first compound 2 µM,0.891
same,relative viability,LXF-289; first compound 6.325 µM,0.715
same,relative viability,LXF-289; first compound 20 µM,0.453
same,relative viability,NCI-H650; first compound 0.2 µM,1.07
same,relative viability,NCI-H650; first compound 0.6325 µM,1
same,relative viability,NCI-H650; first compound 2 µM,0.934
same,relative viability,NCI-H650; first compound 6.325 µM,0.89
same,relative viability,NCI-H650; first compound 20 µM,0.282
same,relative viability,HARA; first compound 0.2 µM,0.22
same,relative viability,HARA; first compound 0.6325 µM,0.261
same,relative viability,HARA; first compound 2 µM,0.237
same,relative viability,HARA; first compound 6.325 µM,0.234
same,relative viability,HARA; first compound 20 µM,0.149
same,relative viability,LOU-NH91; first compound 0.2 µM,0.335
same,relative viability,LOU-NH91; first compound 0.6325 µM,0.466
same,relative viability,LOU-NH91; first compound 2 µM,0.383
same,relative viability,LOU-NH91; first compound 6.325 µM,0.403
same,relative viability,LOU-NH91; first compound 20 µM,0.285
same,relative viability,HCC-78; first compound 0.2 µM,0.851
same,relative viability,HCC-78; first compound 2 µM,0.927
same,relative viability,HCC-78; first compound 6.325 µM,0.858
same,relative viability,HCC-78; first compound 20 µM,0.919
same,relative viability,SK-MES-1; first compound 0.2 µM,0.962
same,relative viability,SK-MES-1; first compound 0.6325 µM,0.907
same,relative viability,SK-MES-1; first compound 2 µM,0.796
same,relative viability,SK-MES-1; first compound 6.325 µM,0.56
same,relative viability,SK-MES-1; first compound 20 µM,0.298
same,relative viability,NCI-H1563; first compound 0.2 µM,0.883
same,relative viability,NCI-H1563; first compound 0.6325 µM,0.905
same,relative viability,NCI-H1563; first compound 2 µM,0.651
same,relative viability,NCI-H1563; first compound 6.325 µM,0.786
same,relative viability,NCI-H1563; first compound 20 µM,0.481
same,relative viability,COR-L 105; first compound 0.2 µM,1.02
same,relative viability,COR-L 105; first compound 0.6325 µM,1.13
same,relative viability,COR-L 105; first compound 2 µM,0.882
same,relative viability,COR-L 105; first compound 6.325 µM,0.933
same,relative viability,COR-L 105; first compound 20 µM,1.04
same,relative viability,NCI-H2087; first compound 0.2 µM,0.593
same,relative viability,NCI-H2087; first compound 0.6325 µM,0.724
same,relative viability,NCI-H2087; first compound 2 µM,0.729
same,relative viability,NCI-H2087; first compound 6.325 µM,0.601
same,relative viability,NCI-H2087; first compound 20 µM,0.644
same,relative viability,H3255; first compound 0.2 µM,0.539
same,relative viability,H3255; first compound 0.6325 µM,0.553
same,relative viability,H3255; first compound 2 µM,0.532
same,relative viability,H3255; first compound 6.325 µM,0.556
same,relative viability,H3255; first compound 20 µM,0.312
same,relative viability,UMC-11; first compound 0.2 µM,0.721
same,relative viability,UMC-11; first compound 0.6325 µM,0.848
same,relative viability,UMC-11; first compound 2 µM,0.815
same,relative viability,UMC-11; first compound 6.325 µM,0.739
same,relative viability,UMC-11; first compound 20 µM,0.369
same,relative viability,NCI-H1395; first compound 0.2 µM,0.848
same,relative viability,NCI-H1395; first compound 0.6325 µM,0.743
same,relative viability,NCI-H1395; first compound 2 µM,0.8
same,relative viability,NCI-H1395; first compound 6.325 µM,0.697
same,relative viability,NCI-H1395; first compound 20 µM,0.341
same,relative viability,LC-2-ad; first compound 0.2 µM,0.293
same,relative viability,LC-2-ad; first compound 0.6325 µM,0.292
same,relative viability,LC-2-ad; first compound 2 µM,0.287
same,relative viability,LC-2-ad; first compound 6.325 µM,0.268
same,relative viability,LC-2-ad; first compound 20 µM,0.232
same,relative viability,NCI-H1993; first compound 0.2 µM,0.572
same,relative viability,NCI-H1993; first compound 0.6325 µM,0.553
same,relative viability,NCI-H1993; first compound 2 µM,0.596
same,relative viability,NCI-H1993; first compound 6.325 µM,0.481
same,relative viability,NCI-H1993; first compound 20 µM,0.384
same,relative viability,LU99A; first compound 0.2 µM,0.178
same,relative viability,LU99A; first compound 0.6325 µM,0.193
same,relative viability,LU99A; first compound 2 µM,0.175
same,relative viability,LU99A; first compound 6.325 µM,0.17
same,relative viability,LU99A; first compound 20 µM,0.16
same,relative viability,SW 900; first compound 0.2 µM,0.504
same,relative viability,SW 900; first compound 0.6325 µM,0.465
same,relative viability,SW 900; first compound 2 µM,0.499
same,relative viability,SW 900; first compound 6.325 µM,0.349
same,relative viability,SW 900; first compound 20 µM,0.178
same,relative viability,NCI-H2170; first compound 0.2 µM,0.265
same,relative viability,NCI-H2170; first compound 0.6325 µM,0.252
same,relative viability,NCI-H2170; first compound 2 µM,0.247
same,relative viability,NCI-H2170; first compound 6.325 µM,0.254
same,relative viability,NCI-H2170; first compound 20 µM,0.215
same,relative viability,201T; first compound 0.2 µM,0.372
same,relative viability,201T; first compound 0.6325 µM,0.338
same,relative viability,201T; first compound 2 µM,0.38
same,relative viability,201T; first compound 6.325 µM,0.31
same,relative viability,201T; first compound 20 µM,0.318
same,relative viability,NCI-H2126; first compound 0.2 µM,0.643
same,relative viability,NCI-H2126; first compound 0.6325 µM,0.67
same,relative viability,NCI-H2126; first compound 2 µM,0.675
same,relative viability,NCI-H2126; first compound 6.325 µM,0.563
same,relative viability,NCI-H2126; first compound 20 µM,0.399
same,relative viability,RERF-LC-KJ; first compound 0.2 µM,0.47
same,relative viability,RERF-LC-KJ; first compound 0.6325 µM,0.466
same,relative viability,RERF-LC-KJ; first compound 2 µM,0.369
same,relative viability,RERF-LC-KJ; first compound 6.325 µM,0.361
same,relative viability,RERF-LC-KJ; first compound 20 µM,0.165
same,relative viability,EMC-BAC-2; first compound 0.2 µM,0.421
same,relative viability,EMC-BAC-2; first compound 0.6325 µM,0.436
same,relative viability,EMC-BAC-2; first compound 2 µM,0.432
same,relative viability,EMC-BAC-2; first compound 6.325 µM,0.448
same,relative viability,EMC-BAC-2; first compound 20 µM,0.354
